In assay [1] the test system is Peas (Pisum sativum). The assay can be described thus: Soil incorporation (attaclay/sand dust), growth regulatory or herbicidal effects, peas. In kind it is in vivo. As to conditions: Lathyrus oleraceus, 504 h, soil incorporation 26 ppm, 21 days, 0=no effect, 100=complete kill, read-out: growth regulatory or herbicidal effect score. The method, boiled down:
(§1)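 Dust-formulated compound incorporated in potting compost, 26 or 130 ppm w/v; seeds sown, watered, 21 d at 22° C, 65-85% RH, 14 h/day 13,000 lux. Visual growth-regulatory/herbicidal score 0 (no effect) to 100 (complete kill) vs untreated.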

Assay [2] has as its system Barnyardgrass (Echinochloa crus-galli). The assay can be described thus: Pre-emergence soil surface spray, barnyardgrass. In kind it is in vivo. As to conditions: soil surface spray 2.8 kg/ha, 21 days, 0=no effect, 100=complete kill. An excerpt:
(§2) Seeds of the plant species listed below were sown in John Innes I potting compost in aluminium pans, 19 cm long×9.5 cm wide×5.0 cm high, one species per pan. The soil surface was then sprayed with a compound listed below, formulated as a solution in 1:1 by volume aqueous acetone except for the compound of Example 44 which was formulated as an aqueous suspension containing 1000 parts per million of the wetting agent Lissapol NX (nonylphenol/ethylene oxide condensate). Each compound was applied at a rate of 2.8 kg of active ingredient per hectare in 450 liters of spray liquid per hectare. The pans were then watered, and placed in a controlled environment room (22° C., relative humidity 65-85%, 14 hours per day artificial illumination at 17,000 lux) for 21 days. The plants were then visually assessed for any growth regulatory or herbicidal effects. All differences from an untreated control were scored on a scale from 0-100, where 0 signifies no effect and 100 signifies complete kill.

Assay [3] has as its system Carrot (Daucus carota). The assay can be described thus: Pre-emergence soil surface spray, carrot. It is filed as in vivo. As to conditions: soil surface spray 2.8 kg/ha, 21 days, 0=no effect, 100=complete kill.
Source text: as §2

The subject of assay [4] is Wheat (Triticum aestivum). Description: Pre-emergence soil surface spray, wheat. In kind it is in vivo. As to conditions: soil surface spray 2.8 kg/ha, 21 days, 0=no effect, 100=complete kill.
Source text: as §2

Assay [5] deals with French beans (Phaseolus vulgaris). Description: Post-emergence foliar spray, herbicidal/growth regulant response, French beans. As to conditions: foliar spray 11.2 kg/ha, 7 days, 0=no effect, 100=complete kill. It is filed as in vivo. The procedure:
Seeds of the plant species listed below were sown in anodised aluminium pans, 19 cm long×9.5 cm wide×5 cm deep, containing John Innes I potting compost. They were then watered and placed in a controlled environment room (22° C.; 65-85% relative humidity; 14 hours per day artificial illumination at 13,000 lux). Fourteen days after sowing, the seedlings received a foliar spray of a compound listed below, formulated as a solution in 1:1 by volume aqueous acetone. The concentration of active ingredient and volume of application were adjusted so as to be equivalent to a rate of 11.2 kg/ha in 450 liters per hectare. After seven days growth in the controlled environment room, the plants were visually assessed for any herbicidal or growth regulant response. All differences from the untreated control were scored according to an index where 0=no effect and 100=complete kill.
The product of Example 95 was tested according to the procedure of Examples 49-55.

Assay [6] concerns Barley (Hordeum vulgare). The assay can be described thus: Pre-emergence soil surface spray, barley. In kind it is in vivo. To be noted: soil surface spray 2.8 kg/ha, 21 days, 0=no effect, 100=complete kill.
Source text: as §2

In assay [7] the test system is Sugarbeet (Beta vulgaris). Description: Post-emergence foliar spray, herbicidal/growth regulant response, sugarbeet. It is filed as in vivo. To be noted: 168 h, foliar spray 11.2 kg/ha, 7 days, 0=no effect, 100=complete kill, read-out: herbicidal or growth regulant response index. The method, boiled down:
(§3)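 Test compound, dissolved in 1:1 by volume aqueous acetone, is applied as a foliar spray equivalent to 11.2 kg/ha in 450 L/ha to seedlings two weeks after sowing. Responses are rated visually after one week on a 0–100 kill scale.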

For assay [8], the system named is Linseed (Linum usitatissimum). Description: Soil incorporation (attaclay/sand dust), growth regulatory or herbicidal effects, linseed. In kind it is in vivo. As to conditions: 504 h, soil incorporation 26 ppm, 21 days, 0=no effect, 100=complete kill, read-out: growth regulatory or herbicidal effect score. The method, boiled down: as §1
For assay [9], the system named is Linseed (Linum usitatissimum). The assay can be described thus: Post-emergence foliar spray, herbicidal/growth regulant response, linseed. It is filed as in vivo. As to conditions: 168 h, foliar spray 11.2 kg/ha, 7 days, 0=no effect, 100=complete kill, read-out: herbicidal or growth regulant response index. The gist of the method: as §3
The subject of assay [10] is Blackgrass (Alopecurus myosuroides). The assay can be described thus: Pre-emergence soil surface spray, blackgrass. It is filed as in vivo. As to conditions: soil surface spray 2.8 kg/ha, 21 days, 0=no effect, 100=complete kill.
Source text: as §2

Assay [11] concerns Maize (Zea mays). Description: Soil incorporation (attaclay/sand dust), growth regulatory or herbicidal effects, maize. In kind it is in vivo. As to conditions: 504 h, soil incorporation 26 ppm, 21 days, 0=no effect, 100=complete kill, read-out: growth regulatory or herbicidal effect score. The method, boiled down:
as §1

In assay [12] the test system is Wild Oat (Avena fatua). The assay can be described thus: Pre-emergence soil surface spray, wild oat. It is filed as in vivo. To be noted: soil surface spray 2.8 kg/ha, 21 days, 0=no effect, 100=complete kill.
Source text: as §2

Assay [13] concerns Ryegrass (Lolium perenne). The assay can be described thus: Soil incorporation (attaclay/sand dust), growth regulatory or herbicidal effects, ryegrass. It is filed as in vivo. To be noted: 504 h, soil incorporation 26 ppm, 21 days, 0=no effect, 100=complete kill, read-out: growth regulatory or herbicidal effect score. The gist of the method:
as §1

Assay [14] deals with Chickweed (Stellaria media). The assay can be described thus: Pre-emergence soil surface spray, chickweed. It is filed as in vivo. To be noted: soil surface spray 2.8 kg/ha, 21 days, 0=no effect, 100=complete kill.
Source text: as §2

Assay [15] concerns Mustard (Sinapis alba). The assay can be described thus: Post-emergence foliar spray, herbicidal/growth regulant response, mustard. In kind it is in vivo. As to conditions: 168 h, foliar spray 11.2 kg/ha, 7 days, 0=no effect, 100=complete kill, read-out: herbicidal or growth regulant response index. The gist of the method:
as §3

The test system of assay [16] is Mustard (Sinapis alba). The assay can be described thus: Pre-emergence soil surface spray, mustard. In kind it is in vivo. To be noted: soil surface spray 2.8 kg/ha, 21 days, 0=no effect, 100=complete kill.
Source text: as §2

In assay [17] the test system is Fathen (Chenopodium album). The assay can be described thus: Pre-emergence soil surface spray, fathen. In kind it is in vivo. As to conditions: soil surface spray 2.8 kg/ha, 21 days, 0=no effect, 100=complete kill.
Source text: as §2

The subject of assay [18] is Cotton (Gossypium sp.). Description: Pre-emergence soil surface spray, cotton. It is filed as in vivo. To be noted: soil surface spray 2.8 kg/ha, 21 days, 0=no effect, 100=complete kill.
Source text: as §2

Assay [19] has as its system Oats (Avena sativa). Description: Soil incorporation (attaclay/sand dust), growth regulatory or herbicidal effects, oats. It is filed as in vivo. To be noted: 504 h, soil incorporation 26 ppm, 21 days, 0=no effect, 100=complete kill, read-out: growth regulatory or herbicidal effect score. The method, boiled down:
as §1

The test system of assay [20] is Mustard (Sinapis alba). The assay can be described thus: Soil incorporation (attaclay/sand dust), growth regulatory or herbicidal effects, mustard. To be noted: 504 h, soil incorporation 26 ppm, 21 days, 0=no effect, 100=complete kill, read-out: growth regulatory or herbicidal effect score. It is filed as in vivo. The gist of the method:
as §1

Assay [21] concerns Tomato (Lycopersicon esculentum). Description: Pre-emergence soil surface spray, tomato. In kind it is in vivo. To be noted: soil surface spray 2.8 kg/ha, 21 days, 0=no effect, 100=complete kill.
Source text: as §2

The test system of assay [22] is cucumber powdery mildew Erysiphe cichoracearum. The assay can be described thus: Cucumber powdery mildew control on cucumber plants. In kind it is in vivo. As to conditions: 2000 mg per liter; soil and leaves; 14 days; controls less than 5%.
The test system of assay [23] is Ryegrass (Lolium perenne). Description: Post-emergence foliar spray, herbicidal/growth regulant response, ryegrass. It is filed as in vivo. As to conditions: 168 h, foliar spray 11.2 kg/ha, 7 days, 0=no effect, 100=complete kill, read-out: herbicidal or growth regulant response index. The gist of the method: as §3
Assay [24] relates to Crabgrass (Digitaria sanguinalis). The assay can be described thus: Pre-emergence soil surface spray, crabgrass. In kind it is in vivo. As to conditions: soil surface spray 2.8 kg/ha, 21 days, 0=no effect, 100=complete kill.
Source text: as §2

Assay [25] relates to Oat (Avena sativa). The assay can be described thus: Post-emergence foliar spray, herbicidal/growth regulant response, oat. It is filed as in vivo. To be noted: 168 h, foliar spray 11.2 kg/ha, 7 days, 0=no effect, 100=complete kill, read-out: herbicidal or growth regulant response index. The method, boiled down:
as §3

Assay [26] has as its system Peas (Pisum sativum). Description: Post-emergence foliar spray, herbicidal/growth regulant response, peas. In kind it is in vivo. As to conditions: Lathyrus oleraceus, 168 h, foliar spray 11.2 kg/ha, 7 days, 0=no effect, 100=complete kill, read-out: herbicidal or growth regulant response index. The method, boiled down:
as §3

For assay [27], the system named is Xanthomonas malvacearum. Description: Bacterial growth in dextrose nutrient broth. In kind it is cell-based. To be noted: 200 ppm weight/volume; 8 days incubation at 25° C. The procedure:
A 1% suspension/solution of the product of Example 157 in polyethylene glycol (Carbowax 400) was added to a dextrose nutrient broth to give a concentration of 1,000 parts per million (ppm) weight/volume of medium. Dilution in test tubes was then carried out to give a concentration of 200 ppm weight/volume of medium. To 8 ml quantities of broth was added 0.2 ml of a dense broth culture of the bacterium causing black arm of cotton, Xanthomonas malvacearum. After 8 days incubation at 25° C., all the broth specimens were examined for signs of bacterial growth.

Assay [28] concerns acetylcholinesterase. The assay can be described thus: Standard test indicative of insecticidal activity: inhibition of acetylcholinesterase. It is filed as biochemical. As to conditions: 100 micromolar concentration.

With `CCOC(=O)C(C)N(c1c(C)cccc1C)S(C)(=O)=O` (centres unmarked) [Example 15], the pest or weed control at 26 µg/mL in [1] was 0%; in [8] it was 70%; in assay [13] it was 100%; in assay [20] it was 100%. The “growth regulatory or herbicidal effect score” value in [2] was found to be 40; in [3], 0; in assay [4], 0; in assay [6], 0; in [10], 20; in [12] it was 5. The “growth regulatory or herbicidal effect score” value in [14] is listed as 30; in [16], 10; in assay [17] it was 100; in assay [18] it was 0; in [21] it was 20; in assay [24], 100. In addition, in assay [5], the “herbicidal or growth regulant response index” value came to 70. The plant injury at 11200 g/ha in [7] was found to be 90%; in assay [25] it was 5%. In addition, the pest or weed control at 11200 g/ha in assay [9] is 90%; in assay [15], 90%; in assay [23] it was 10%; in assay [26], 5%. For the same compound, the plant injury at 26 µg/mL was found to be 50% in assay [11] and 20% in assay [19]. Besides, the “fungus control, cucumber powdery mildew” value in [22] is 82%.
With `CCOC(=O)C(C)N(c1c(C)cccc1Cl)S(C)(=O)=O` (centres unmarked) [Example 22], the pest or weed control at 26 µg/mL was found to be 0% in assay [1], 100% in assay [8], 90% in [13] and 100% in assay [20]. The “growth regulatory or herbicidal effect score” value worked out at 0 in [2]; 0 in assay [3]; 0 in assay [4]; 0 in assay [6]; 40 in assay [10]; 0 in [12]. Also, the “growth regulatory or herbicidal effect score” value in assay [14] was found to be 50; in assay [16] it was 90; in [17] it was 100; in assay [18] it was 0; in assay [21] it was 40; in assay [24], 90. In addition, the “herbicidal or growth regulant response index” value in assay [5] was 80. The plant injury at 11200 g/ha in assay [7] came to 80%; in assay [25], 5%. The pest or weed control at 11200 g/ha in assay [9] was 30%; in assay [15], 80%; in assay [23] it was 5%; in assay [26], 5%. The plant injury at 26 µg/mL in [11] and in assay [19] was 50% in each case.
For the compound `CS(=O)(=O)N(CC(N)=S)c1cccc(Cl)c1Cl` [Example 157], in assay [27], the bacterial growth result is listed as “No growth occurred”.
Take `CNC(=O)ON=C(C)CN(c1c(C)cccc1C)S(C)(=O)=O` [Example 248, N-[2-(methylcarbamoyloxyimino)propyl]-2',6'-dimethylmethanesulphonanilide]: the inhibition of acetylcholinesterase in [28] turned out to be 30%.

The values are drawn from US4309559A, “Sulphonamides useful as pesticides” (FBC Limited, priority 1977, dated 1982).
